Legend:
[1] = tested on: primary IM-resistant CML cells; assay: Percentage non-viable cells by trypan blue uptake, primary IM-resistant CML-BC cells; format: cell-based, human; conditions: 48 hours
Description: FIG. 6. […] Following this, the percentages of non-viable cells for each drug alone or drug combination were determined by trypan blue uptake in hemocytometer. Values represent the percentage of non-viable cells from each condition as compared to untreated cells.
Primary CML cells. CML cells from the peripheral blood and/or bone marrow of eleven patients who had met the clinical criteria of IM-resistant advanced phase of CML were harvested and purified, as previously described. Informed consents were signed by all patients to allow use of their cells for these experiments, as part of a clinical protocol approved by the University of South Florida Institutional Review Board (IRB).
Cells were stained with trypan blue (Sigma, St. Louis, Mo.).

[2] = tested on: K562 cells; assay: Apoptosis by Annexin-V staining (flow cytometry), K562 cells; format: cell-based, human; conditions: 10 nM dasatinib, 48 hours
Description: Untreated or drug-treated cells were stained with Annexin-V (Pharmingen, San Diego, Calif.) and propidium iodide (PI) and the percentage of apoptotic cells were determined by flow cytometry. […] The percentage of apoptotic cells was determined by flow cytometry. The combination index (CI) for each drug combination was obtained by median dose effect of Chou and Talalay utilizing the combination index equation within the commercially available software Calcusyn (Biosoft, Ferguson, Mo.).

[3] = tested on: normal bone marrow progenitor cells (NBMC's); assay: Loss of survival of normal bone marrow progenitor cells; format: cell-based
[4] = tested on: LAMA-84 cells; assay: Apoptosis by Annexin-V staining (flow cytometry), LAMA-84 cells; format: cell-based, human; conditions: 10 nM dasatinib, 48 hours
Description: FIG. 1D. […] Following treatment, the percentages of annexin-V-stained apoptotic cells were measured by flow cytometry. Values represent the mean of three experiments±S.E.M.
Bcr-Abl-expressing, CML LAMA-84 and K562 cells were obtained and maintained in culture, as previously described. […] Following these treatments, cells or cell pellets were washed free of the drug(s) prior to the performance of the studies.

[5] = tested on: BaF3/Bcr-AblE255K cells; assay: Apoptosis by Annexin-V staining, BaF3/Bcr-AblE255K cells; conditions: 2.0 μM vorinostat, 48 hours
Description: After treatment, the percentage of Annexin-V-stained apoptotic cells was determined by flow cytometry.
BaF3/Bcr-Abl, BaF3/Bcr-AblE255K, and BaF3/Bcr-AblT315I cells were treated with the indicated concentrations of vorinostat for 48 hours. After treatment, the percentage of Annexin-V-stained apoptotic cells was determined by flow cytometry.
Following treatment, the percentage of annexin-V-stained apoptotic cells was determined by flow cytometry.
Stably expressing cells were then further selected by removal of IL-3.
Untreated or drug-treated cells were stained with Annexin-V (Pharmingen, San Diego, Calif.) and propidium iodide (PI) and the percentage of apoptotic cells were determined by flow cytometry. […] The percentage of apoptotic cells was determined by flow cytometry.

Compound | loss of cell viability, samples #1 to #9 ([1]; IM-resistant primary CML cells, mutational status not determined) | apoptosis of K562 cells [2] | effect on NBMC ([3]; dasatinib up to 20 nM) | apoptosis of LAMA-84 cells [4] | loss of cell viability, all samples including #10 and #11 ([1]; 2.0 μM vorinostat alone) | loss of survival of NBMC ([3]; 2.0 μM vorinostat, mean of 2 samples) | apoptosis of BaF3/Bcr-AblE255K cells [5]
Cc1nc(Nc2ncc(C(=O)Nc3c(C)cccc3Cl)s2)cc(N2CCN(CCO)CC2)n1 [dasatinib, N-(2-chloro-6-methylphenyl)-2-[[6-[4-(2-hydroxyethyl)-1-piperazinyl]-2-methyl-4-pyrimidinyl]amino]-5-thiazolecarboxamide] | induced loss of cell viability in a dose dependent manner | ~50% | no effect | approximately 90% | – | – | –
O=C(CCCCCCC(=O)Nc1ccccc1)NO [vorinostat, suberoylanilide hydroxamic acid] | – | – | – | – | induced loss of cell viability in all of the samples | 15.9% | approximately 40%

Reference: patent publication US7799788B2, “Method of treating chronic myelogenous leukemia cells” (University of South Florida, priority 2006, dated 2010)
